Source: ChEMBL document CHEMBL1152224, “Small, non-peptide C5a receptor antagonists: part 1” (Bioorg Med Chem Lett, 2008)

Key:
[1] = Lipophilicity, log P of the compound; assay type: physicochemical; settings: octanol/water
[2] = in vitro; settings: human, liver microsomes
[3] = physchem; settings: octanol/water, pH 7.4
[4] = Oral bioavailability in rat at 10 mg/kg, po; assay type: ADME, organism-based; settings: in vivo
[5] = Half life in rat at 0.5 mg/kg, iv and 10 mg/kg, po; assay type: ADME, organism-based; settings: in vivo
[6] = Volume of distribution in rat at 0.5 mg/kg, iv and 10 mg/kg, po; assay type: ADME, organism-based; settings: in vivo
[7] = Clearance in rat at 0.5 mg/kg, iv and 10 mg/kg, po; assay type: ADME, organism-based; settings: in vivo
[8] = Volume of distribution in dog at 0.5 mg/kg, iv; assay type: ADME, organism-based, Canis lupus familiaris; set-up: dose 0.5 mg/kg, route intravenous; settings: in vivo
[9] = Half life in dog at 0.5 mg/kg, iv; assay type: ADME, organism-based, Canis lupus familiaris; set-up: dose 0.5 mg/kg, route intravenous; settings: in vivo
[10] = Clearance in dog at 0.5 mg/kg, iv; assay type: ADME, organism-based, Canis lupus familiaris; set-up: dose 0.5 mg/kg, route intravenous; settings: in vivo

logP [1]	half-life [2] [min]	logD [3]	bioavailability [4] [%]	half-life [5] [min]	Vd [6] [L/kg]	clearance [7] [mL/min/kg]	Vd [8] [L/kg]	half-life [9] [min]	clearance [10] [mL/min/kg]	Compound
> 5	11	–	–	–	–	–	–	–	–	O=C(Nc1ccc(F)cc1F)N1CCC(N(CCc2ccc(Cl)cc2)C(=O)c2csc3ccccc23)CC1
–	14	4.9	0.5	30	3	67	–	–	–	O=C(c1csc2ccccc12)N(CCc1ccc(Cl)cc1)[C@H]1CC[C@H](O)CC1
–	20	> 5	–	–	–	–	3.5	84	29	O=C(c1cccc2ccccc12)N(CCc1ccc(Cl)cc1)[C@H]1CC[C@H](O)CC1

Compound	logP [1]	half-life [2] [min]	logD [3]	bioavailability [4] [%]	half-life [5] [min]	Vd [6] [L/kg]	clearance [7] [mL/min/kg]	Vd [8] [L/kg]	half-life [9] [min]	clearance [10] [mL/min/kg]
O=C(c1csc2ccccc12)N(CCc1ccc(Cl)cc1)C1CCN(CCc2ccc(F)cc2F)CC1	–	–	4.1	–	–	–	–	–	–	–
